Assay [1] addresses T1, GST-tagged truncated LRRK2 (Homo sapiens, UniProt Q5S007).
T1 construct: GST-tagged truncated LRRK2 from Invitrogen (Cat # PV4874); GST; purchased Invitrogen PV4874
Kind of assay: LRRK2 Assay, Format 2 (Lantha Screen), WT. It counts as biochemical. To be noted: geometric mean of 2-4 determinations unless otherwise indicated (a: >=5; b: single determination).

For assay [2], the target named is mutant G2019S LRRK2 (Homo sapiens, UniProt Q5S007, G2019S). Description: LRRK2 Assay, Format 2 (Lantha Screen), G2019S mutant. It counts as biochemical. Set-up: purchased Invitrogen PV4881. To be noted: geometric mean of 2-4 determinations unless otherwise indicated (a: >=5; b: single determination); read-out: LRRK2, Format 2 G2019S IC50.
mutant G2019S LRRK2, sequence (Q5S007 970-2527 G2019S limits assumed): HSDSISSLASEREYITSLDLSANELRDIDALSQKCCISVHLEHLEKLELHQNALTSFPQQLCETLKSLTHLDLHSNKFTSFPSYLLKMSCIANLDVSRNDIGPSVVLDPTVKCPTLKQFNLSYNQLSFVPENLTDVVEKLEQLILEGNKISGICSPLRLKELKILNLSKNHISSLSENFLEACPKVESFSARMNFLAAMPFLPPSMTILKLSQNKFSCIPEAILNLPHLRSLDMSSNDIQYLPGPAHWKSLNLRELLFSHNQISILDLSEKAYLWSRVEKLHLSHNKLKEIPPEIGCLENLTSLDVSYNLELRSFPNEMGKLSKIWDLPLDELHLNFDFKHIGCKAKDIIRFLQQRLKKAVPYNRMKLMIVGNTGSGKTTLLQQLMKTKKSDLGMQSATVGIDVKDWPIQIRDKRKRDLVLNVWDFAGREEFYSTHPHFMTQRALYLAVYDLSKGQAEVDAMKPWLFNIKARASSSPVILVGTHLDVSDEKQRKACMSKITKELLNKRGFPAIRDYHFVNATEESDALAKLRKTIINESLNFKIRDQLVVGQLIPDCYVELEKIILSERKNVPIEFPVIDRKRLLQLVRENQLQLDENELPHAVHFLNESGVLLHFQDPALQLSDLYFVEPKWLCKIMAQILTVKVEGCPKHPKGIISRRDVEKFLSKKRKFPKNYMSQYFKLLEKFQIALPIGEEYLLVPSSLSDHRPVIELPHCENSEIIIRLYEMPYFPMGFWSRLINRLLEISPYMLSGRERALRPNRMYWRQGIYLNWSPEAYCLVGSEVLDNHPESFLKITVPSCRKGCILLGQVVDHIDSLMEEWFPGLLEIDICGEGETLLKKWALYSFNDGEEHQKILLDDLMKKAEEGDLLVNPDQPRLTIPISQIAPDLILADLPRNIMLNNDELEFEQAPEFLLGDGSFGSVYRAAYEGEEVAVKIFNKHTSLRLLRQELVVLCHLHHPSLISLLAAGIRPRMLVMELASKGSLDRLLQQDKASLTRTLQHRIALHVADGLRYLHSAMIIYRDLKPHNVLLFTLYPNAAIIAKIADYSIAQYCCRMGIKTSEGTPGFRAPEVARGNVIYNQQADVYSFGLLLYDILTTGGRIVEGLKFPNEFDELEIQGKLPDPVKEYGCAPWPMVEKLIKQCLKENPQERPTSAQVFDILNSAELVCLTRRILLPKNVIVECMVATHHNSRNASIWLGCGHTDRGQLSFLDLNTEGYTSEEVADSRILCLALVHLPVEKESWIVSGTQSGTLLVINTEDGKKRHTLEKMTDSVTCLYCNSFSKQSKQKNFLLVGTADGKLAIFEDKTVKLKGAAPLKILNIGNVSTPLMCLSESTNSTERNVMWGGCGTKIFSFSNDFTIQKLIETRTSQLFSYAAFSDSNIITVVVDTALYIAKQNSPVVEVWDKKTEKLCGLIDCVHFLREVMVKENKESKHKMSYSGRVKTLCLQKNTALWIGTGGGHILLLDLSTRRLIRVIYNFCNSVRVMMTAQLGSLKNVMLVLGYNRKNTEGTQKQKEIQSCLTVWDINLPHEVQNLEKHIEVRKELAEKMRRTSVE

Counter-ions that a name gives are not always drawn.

T1 sequence (Q5S007 970-2527 limits assumed): as the sequence (Q5S007 970-2527 G2019S limits assumed) above, with S1050G counted along it

For `C[C@@H]1C[C@H](n2c(Cn3cc(C(F)(F)F)nn3)nc3cnc4ccc(C#N)cc4c32)CCO1` [Example 175, 1-[(2R,4R)-2-methyltetrahydro-2H-pyran-4-yl]-2-{[4-(trifluoromethyl)-1H-1,2,3-triazol-1-yl]methyl}-1H-imidazo[4,5-c]quinoline-8-carbonitrile], the results for the IC50 in assay [1] and in assay [2] were 13.4 nM and 12.2 nM, respectively.
Taken in the same sequence, the figures for `C[C@@H]1C[C@H](n2c(Cc3ccncn3)nc3cnc4ccc(C(F)(F)F)cc4c32)CCO1` [Example 178, 1-[(2R,4R)-2-methyltetrahydro-2H-pyran-4-yl]-2-(pyrimidin-4-ylmethyl)-8-(trifluoromethyl)-1H-imidazo[4,5-c]quinoline] were 5.64 nM and 3.32 nM.
As for `COc1cnn(Cc2nc3cnc4ccc(F)cc4c3n2[C@@H]2CCO[C@H](C)C2)c1` [Example 179, 8-fluoro-2-[(4-methoxy-1H-pyrazol-1-yl)methyl]-1-[(2R,4R)-2-methyltetrahydro-2H-pyran-4-yl]-1H-imidazo[4,5-c]quinoline], the results for the IC50 in assay [1] and in assay [2] were 14 nM and 12.6 nM, respectively.
The corresponding values for `CO[C@H]1C[C@@H](n2c(Cn3cc(C)cn3)nc3cnc4ccc(Cl)cc4c32)C1` [Example 180, 8-chloro-1-[(1s,3s)-3-methoxycyclobutyl]-2-[(4-methyl-1H-pyrazol-1-yl)methyl]-1H-imidazo[4,5-c]quinoline] are 30.4 nM and 29.9 nM.
In the case of `CO[C@H]1C[C@@H](n2c(Cn3cc(C)nn3)nc3cnc4ccc(Cl)cc4c32)C1` [Example 183, 8-chloro-1-[(1s,3s)-3-methoxycyclobutyl]-2-[(4-methyl-1H-1,2,3-triazol-1-yl)methyl]-1H-imidazo[4,5-c]quinoline], the IC50 (as a rule, the point on the concentration scale where inhibition reaches its midpoint) came out at 33.8 nM in assay [1] and 30.8 nM in assay [2].
The corresponding values for `CCC(F)(F)Cn1c(Cc2cnccn2)nc2cnc3ccc(Cl)cc3c21` [Example 184, 8-chloro-1-(2,2-difluorobutyl)-2-(pyrazin-2-ylmethyl)-1H-imidazo[4,5-c]quinoline] are 34.3 nM and 22.8 nM.
Taken in the same sequence, the figures for `CCC(F)(F)Cn1c(Cn2cc(C)nn2)nc2cnc3ccc(Cl)cc3c21` [Example 186, 8-chloro-1-(2,2-difluorobutyl)-2-[(4-methyl-1H-1,2,3-triazol-1-yl)methyl]-1H-imidazo[4,5-c]quinoline] were 22.5 nM and 16.4 nM.
Taken in the same sequence, the figures for `Cc1cn(Cc2nc3cnc4ccc(Cl)cc4c3n2C2CCC2(F)F)nn1` (stereo not drawn) [Example 187, 8-chloro-1-(2,2-difluorocyclobutyl)-2-[(4-methyl-1H-1,2,3-triazol-1-yl)methyl]-1H-imidazo[4,5-c]quinoline] were 28.1 nM and 33.3 nM.
Turning to `C[C@@H]1C[C@H](n2c(Cc3cc(CF)on3)nc3cnc4ccc(C#N)cc4c32)CCO1` [Example 189, 2-{[5-(fluoromethyl)-1,2-oxazol-3-yl]methyl}-1-[(2R,4R)-2-methyltetrahydro-2H-pyran-4-yl]-1H-imidazo[4,5-c]quinoline-8-carbonitrile, trifluoroacetate salt], the results for the IC50 in assay [1] and in assay [2] were 5.04 nM and 3.54 nM, respectively.
The corresponding values for `Cc1cnn(Cc2nc3cnc4ccc(C#N)cc4c3n2[C@H]2CCN(C)C2)c1` [Example 190, 2-[(4-methyl-1H-pyrazol-1-yl)methyl]-1-[(3S)-1-methylpyrrolidin-3-yl]-1H-imidazo[4,5-c]quinoline-8-carbonitrile] are 26.6 nM and 26.2 nM.
Regarding `C[C@@H]1C[C@H](n2c(Cc3cnns3)nc3cnc4ccc(Cl)cc4c32)CCO1` [Example 193, 8-chloro-1-[(2R,4R)-2-methyltetrahydro-2H-pyran-4-yl]-2-(1,2,3-thiadiazol-5-ylmethyl)-1H-imidazo[4,5-c]quinoline], the half-maximal inhibitory concentration (IC50) is 37.3 nM in assay [1] and 32.6 nM in assay [2].
Taken in the same sequence, the figures for `Cc1cnn(Cc2nc3cnc4ccc(C#N)cc4c3n2[C@@H]2CCN(C)C2)c1` [Example 194, 2-[(4-methyl-1H-pyrazol-1-yl)methyl]-1-[(3R)-1-methylpyrrolidin-3-yl]-1H-imidazo[4,5-c]quinoline-8-carbonitrile] were 19.9 nM and 25.1 nM.
The corresponding values for `C[C@@H]1C[C@H](n2c(Cc3csnn3)nc3cnc4ccc(C#N)cc4c32)CCO1` [Example 195, 1-[(2R,4R)-2-methyltetrahydro-2H-pyran-4-yl]-2-(1,2,3-thiadiazol-4-ylmethyl)-1H-imidazo[4,5-c]quinoline-8-carbonitrile] are 3.46 nM and 2.28 nM.
Taken in the same sequence, the figures for `Cc1cnn(Cc2nc3cnc4ccc(F)cc4c3n2[C@@H]2CCO[C@H](C)C2)c1` [Example 198, 8-fluoro-2-[(4-methyl-1H-pyrazol-1-yl)methyl]-1-[(2R,4R)-2-methyltetrahydro-2H-pyran-4-yl]-1H-imidazo[4,5-c]quinoline] were 15.2 nM and 16.8 nM.
For `Cc1cn(Cc2nc3cnc4ccc(F)cc4c3n2[C@@H]2CCO[C@H](C)C2)nn1` [Example 199, 8-fluoro-1-[(2R,4R)-2-methyltetrahydro-2H-pyran-4-yl]-2-[(4-methyl-1H-1,2,3-triazol-1-yl)methyl]-1H-imidazo[4,5-c]quinoline], the IC50 in assay [1] is 10.3 nM; in assay [2], 11.8 nM.
Take `Cc1cc(Cc2nc3cnc4ccc(F)cc4c3n2[C@@H]2CCO[C@H](C)C2)no1` [Example 200, 8-fluoro-2-[(5-methyl-1,2-oxazol-3-yl)methyl]-1-[(2R,4R)-2-methyltetrahydro-2H-pyran-4-yl]-1H-imidazo[4,5-c]quinoline]: the figures for the IC50 in assay [1] and in assay [2] were 12.4 nM and 14.3 nM, respectively.
Taken in the same sequence, the figures for `Cc1cnc(Cc2nc3cnc4ccc(C#N)cc4c3n2[C@@H]2CCO[C@H](C)C2)s1` [Example 205, 1-[(2R,4R)-2-methyltetrahydro-2H-pyran-4-yl]-2-[(5-methyl-1,3-thiazol-2-yl)methyl]-1H-imidazo[4,5-c]quinoline-8-carbonitrile] were 6.52 nM and 6.09 nM.
The corresponding values for `Cc1nnn(Cc2nc3cnc4ccc(Cl)cc4c3n2[C@@H]2CCO[C@H](C)C2)n1` [Example 206, 8-chloro-1-[(2R,4R)-2-methyltetrahydro-2H-pyran-4-yl]-2-[(5-methyl-2H-tetrazol-2-yl)methyl]-1H-imidazo[4,5-c]quinoline] are 10.4 nM and 9.57 nM.
The corresponding values for `C[C@@H]1C[C@H](n2c(Cc3ccc(C(F)(F)F)cn3)nc3cnc4ccc(C#N)cc4c32)CCO1` [Example 208, 1-[(2R,4R)-2-methyltetrahydro-2H-pyran-4-yl]-2-{[5-(trifluoromethyl)pyridin-2-yl]methyl}-1H-imidazo[4,5-c]quinoline-8-carbonitrile] are 15 nM and 14.3 nM.
Regarding `CCc1cnn(Cc2nc3cnc4ccc(C#N)cc4c3n2CC(C)(F)F)c1` [Example 209, 1-(2,2-difluoropropyl)-2-[(4-ethyl-1H-pyrazol-1-yl)methyl]-1H-imidazo[4,5-c]quinoline-8-carbonitrile], the 50% inhibitory concentration (IC50) amounted to 8.02 nM in assay [1] and 9.93 nM in assay [2].
Turning to `COc1cnn(Cc2nc3cnc4ccc(C#N)cc4c3n2CC(C)(F)F)c1` [Example 210, 1-(2,2-difluoropropyl)-2-[(4-methoxy-1H-pyrazol-1-yl)methyl]-1H-imidazo[4,5-c]quinoline-8-carbonitrile], the IC50 is 7.04 nM in assay [1] and 7.63 nM in assay [2].

These data come from US10039753B2, “Imidazo[4,5-c]quinoline and imidazo[4,5-c][1,5]naphthyridine derivatives as LRRK2 inhibitors” (Pfizer Inc., priority 2015, dated 2018).
